According to ChEMBL document CHEMBL4229459, “An efficient synthetic route for preparation of antimycobacterial wollamides and evaluation of their in vitro and in vivo efficacy” (Bioorg Med Chem Lett, 2018):
≈ marks a conversion by molar mass, not a printed value. Residues, ends and D or L forms follow the SMILES beside them.

Experiments:
[1] = tested on: Mycobacterium tuberculosis; test: Antimycobacterial activity against Mycobacterium tuberculosis H37Rv incubated for 6 days under shaking condition by resazurin dye based fluorescence assay; type: functional; conditions: 144 h
HepG2 = test: Cytotoxicity against human HepG2 cells after 48 hrs by CellTiter-Glo luminescence assay; type: cell-based; conditions: HepG2, 48 h
[2] = Permeability of the compound by PAMPA; type: ADME; conditions: read-out: permeability
[3] = Intrinsic clearance in mouse liver microsomes; type: ADME, microsome
[4] = Intrinsic clearance in human liver microsomes; type: ADME, microsome
[5] = Kinetic aqueous solubility of the compound by charged aerosol detection method; type: physicochemical; conditions: buffer; read-out: Kinetic_solubility
[6] = Kinetic aqueous solubility of the compound at pH 7.4 phosphate buffered saline after 1 hr by CLND method; type: physicochemical; conditions: read-out: Kinetic_solubility
[7] = Cmax in C57BL/6J mouse at 5 mg/kg, ip; type: ADME, organism-based; design: dose 5 mg/kg, route intraperitoneal; conditions: in vivo
Mus musculus [8] = test: Toxicity in C57BL/6J mouse assessed as body weight loss at 25 mg/kg, ip after 24 hrs by Irwin test; type: organism-based; conditions: in vivo
[9] = AUC (0 to 6 hrs) in C57BL/6J mouse at 5 mg/kg, ip; type: ADME, organism-based; design: dose 5 mg/kg, time < 6 hr, route intraperitoneal; conditions: in vivo
[10] = Cmax in C57BL/6J mouse at 25 mg/kg, ip; type: ADME, organism-based; design: dose 25 mg/kg, route intraperitoneal; conditions: in vivo
[11] = Permeability of the compound at pH 7.4 at […] incubated for 3 hrs under shaking condition by HPLC method; type: ADME; conditions: not told, read-out: permeability
Mus musculus [12] = test: Toxicity in C57BL/6J mouse assessed as behavioral changes at 5 to 25 mg/kg, ip by Irwin test; type: organism-based; conditions: in vivo
[13] = Intrinsic clearance in human liver microsomes at […] pretreated for 45 mins followed by NADPH addition by LC-MS/MS analysis; type: ADME, microsome
Mus musculus [14] = test: Dose normalized AUC (0 to 6 hrs) in C57BL/6J mouse at 25 mg/kg, ip; type: ADME, organism-based; conditions: in vivo
[15] = tested on: Mycobacterium tuberculosis; test: Antimycobacterial activity against Mycobacterium tuberculosis H37Rv infected in C57BL/6J mouse assessed as log10 CFU reduction in bacterial lung count at 5 mg/kg, ip administered once daily for 8 days measured post last dose relative to control; type: functional
[16] = AUC (0 to 6 hrs) in C57BL/6J mouse at 25 mg/kg, ip; type: ADME, organism-based; design: dose 25 mg/kg, time < 6 hr, route intraperitoneal; conditions: in vivo
[17] = tested on: Mycobacterium tuberculosis; test: Antimycobacterial activity against Mycobacterium tuberculosis H37Rv infected in human THP1 cells treated prior to infection measured after 4 days by luciferase reporter gene assay; type: functional, organism-based; conditions: THP-1, 96 h
Mus musculus [18] = test: Dose normalized AUC (0 to 6 hrs) in C57BL/6J mouse at 5 mg/kg, ip; type: ADME, organism-based; conditions: in vivo
[19] = Kinetic aqueous solubility of the compound by CLND method; type: physicochemical; conditions: buffer; read-out: Kinetic_solubility
[20] = Intrinsic clearance in mouse liver microsomes at […] pretreated for 45 mins followed by NADPH addition by LC-MS/MS analysis; type: ADME, microsome
[21] = tested on: Mycobacterium tuberculosis; test: Antimycobacterial activity against Mycobacterium tuberculosis H37Rv infected in C57BL/6J mouse assessed as log10 CFU reduction in bacterial lung count at 30 mg/kg, po administered once daily for 8 days measured post last dose relative to control; type: functional

SMILES | MIC [1] [µM] | IC50 (HepG2) [µM] | Papp [2] [×10⁻⁶ cm/s] | CLH [3] [mL/min/g] | CLH [4] [mL/min/g] | solubility kinetic [5] [µM] | solubility kinetic at 1 h [6] [µM] | CLH [13] [mL/min/g] | IC50 [17] [µM] | also measured
CC(C)C[C@@H]1NC(=O)[C@H](Cc2c[nH]c3ccccc23)NC(=O)[C@@H](CCCN)NC(=O)[C@H](CC(=O)NC2CCCCC2)NC(=O)[C@H](C(C)C)NC(=O)[C@@H](CC(C)C)NC1=O | 5 (≈ 4.11 µg/mL) | 50.1 |  |  |  |  |  |  |  | 
CC(C)C[C@@H]1NC(=O)[C@H](Cc2c[nH]c3ccccc23)NC(=O)[C@@H](CCCN)NC(=O)[C@H](CC(=O)N2CCCCC2)NC(=O)[C@H](C(C)C)NC(=O)[C@@H](CC(C)C)NC1=O | 20 (≈ 16.2 µg/mL) | > 100 | < 1 | < 0.48 | 1.9 | 107 (≈ 86.5 µg/mL) |  |  |  | 
CC[C@H](C)[C@@H]1NC(=O)[C@@H](CC(C)C)NC(=O)[C@H](CC(C)C)NC(=O)[C@H](Cc2c[nH]c3ccccc23)NC(=O)[C@@H](CCCN)NC(=O)[C@H](CC(N)=O)NC1=O | 1.1 (≈ 0.829 µg/mL) | 50.1 |  | < 0.48 |  |  | > 235 | 1.87 | 0.8 | Cmax [7]: 2170 ng/mL; Activity (Mus musculus [8]): 10%; AUC(0-t) at 6 h [9]: 4780 ng·h/mL; Cmax [10]: 6330 ng/mL; Papp at 3 h [11]: < 1 ×10⁻⁶ cm/s; Activity (Mus musculus [12]): Non-Toxic; AUC/dose (Mus musculus [14]): 1063.8 ng·h/mL/mg/kg; FC [15]: -0.2; AUC(0-t) at 6 h [16]: 26600 ng·h/mL; AUC/dose (Mus musculus [18]): 957 ng·h/mL/mg/kg
CC(C)C[C@@H]1NC(=O)[C@H](Cc2c[nH]c3ccccc23)NC(=O)[C@@H](CCCN)NC(=O)[C@H](CC(=O)NCc2ccccc2)NC(=O)[C@H](C(C)C)NC(=O)[C@@H](CC(C)C)NC1=O | 10 (≈ 8.3 µg/mL) | 39.8 | < 1 | 0.73 | 0.88 | > 353 |  |  |  | 
CC[C@@H](C)[C@@H]1NC(=O)[C@@H](CC(C)C)NC(=O)[C@H](CC(C)C)NC(=O)[C@H](Cc2c[nH]c3ccccc23)NC(=O)[C@@H](CCCN)NC(=O)[C@H](CC(N)=O)NC1=O | 1.1 (≈ 0.829 µg/mL) | 50.1 | < 1 | < 0.48 | 0.87 |  |  |  | 0.8 | solubility kinetic [19]: 177 µM (≈ 133 µg/mL)
CCCCNC(=O)C[C@@H]1NC(=O)[C@H](C(C)C)NC(=O)[C@@H](CC(C)C)NC(=O)[C@H](CC(C)C)NC(=O)[C@H](Cc2c[nH]c3ccccc23)NC(=O)[C@@H](CCCN)NC1=O | 10 (≈ 7.96 µg/mL) | 63.1 | < 1 | 1.19 | 1.69 | 146 (≈ 116 µg/mL) |  |  |  | 
CC(C)C[C@@H]1NC(=O)[C@H](Cc2c[nH]c3ccccc23)NC(=O)[C@@H](CCCN)NC(=O)[C@H](CC(=O)N2CCC(Oc3ccc(OC(F)(F)F)cc3)CC2)NC(=O)[C@H](C(C)C)NC(=O)[C@@H](CC(C)C)NC1=O | > 80 | 31.6 | 8.7 | < 0.48 | 0.4 |  | 20 (≈ 19.7 µg/mL) |  |  | 
CC[C@H](C)[C@@H]1NC(=O)[C@@H](CC(C)C)NC(=O)[C@H](CC(C)C)NC(=O)[C@H](Cc2c[nH]c3ccccc23)NC(=O)[C@@H](CCCNC(=N)N)NC(=O)[C@H](CC(N)=O)NC1=O (HELM PEPTIDE1{I.N.[dR].W.L.[dL]}$PEPTIDE1,PEPTIDE1,1:R1-6:R2$$$V2.0) | 0.6 (≈ 0.478 µg/mL) | 50.1 |  |  |  |  | > 238 | 7.44 | 0.2 | Cmax [7]: 1470 ng/mL; Activity (Mus musculus [8]): 10%; CLH [20]: 1.01 mL/min/g; AUC(0-t) at 6 h [9]: 6290 ng·h/mL; Cmax [10]: 3260 ng/mL; Activity (Mus musculus [12]): Non-Toxic; AUC/dose (Mus musculus [14]): 586.1 ng·h/mL/mg/kg; FC [15]: -0.2; AUC(0-t) at 6 h [16]: 14700 ng·h/mL; AUC/dose (Mus musculus [18]): 1258.6 ng·h/mL/mg/kg
CC(C)C[C@@H]1NC(=O)[C@H](Cc2c[nH]c3ccccc23)NC(=O)[C@@H](CCCN)NC(=O)[C@H](CC(N)=O)NC(=O)[C@H](C(C)C)NC(=O)[C@@H](CC(C)C)NC1=O (HELM PEPTIDE1{[NCCC[C@@H](N[*:1])C(=O)[*:2]].W.L.[dL].V.N}$PEPTIDE1,PEPTIDE1,1:R1-6:R2$$$V2.0) | 0.6 (≈ 0.444 µg/mL) | 50.1 |  |  |  |  | 204 (≈ 151 µg/mL) | 0.97 | 1.26 | CLH [20]: < 0.5 mL/min/g; Papp at 3 h [11]: < 0.65 ×10⁻⁶ cm/s
COc1c(N2C[C@@H]3CCCN[C@@H]3C2)c(F)cc2c(=O)c(C(=O)O)cn(C3CC3)c12 [MOXIFLOXACIN] |  |  |  |  |  |  |  |  |  | FC [21]: 3.4
